{"source": "patent US12305162B2", "about": "“Method for expanding propagation of Metarhizium rileyi MR006 and use thereof” (priority 2023, dated 2025)", "test_in_all_cases": "Sub-lethal dose (LC25) of chlorantraniliprole on 2nd instar larvae", "format_in_all_cases": "in vivo", "key": {"[1]": {"system": "Spodoptera frugiperda"}, "[2]": {"system": "Spodoptera litura"}, "[3]": {"system": "Helicoverpa armigera"}}, "data": [{"smiles": "CNC(=O)c1cc(Cl)cc(C)c1NC(=O)c1cc(Br)nn1-c1ncccc1Cl", "note": "[chlorantraniliprole]", "values": [{"measurement": "LC25 value", "setting": "[1]", "result": 0.006, "unit": "µg/g"}, {"measurement": "LC25 value", "setting": "[2]", "result": 0.008, "unit": "µg/g"}, {"measurement": "LC25 value", "setting": "[3]", "result": 0.015, "unit": "µg/g"}]}]}
